Compound: COc1cc(Nc2ncc3c(n2)-c2ccc(Cl)cc2C(c2c(F)cccc2OC)=NC3)ccc1C(=O)O [Alisertib] + CC(C)C[C@H](NC(=O)[C@H](Cc1ccccc1)NC(=O)c1cnccn1)B(O)O [Bortezomib] (partner 0.002 µM)
Assay: relative viability (nuclei count vs DMSO), 5 days (fraction); higher = more cells survive
Procedure, shortened: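 Nuclei were stained with Hoechst during a one-step fixation (final 0.05% Triton X-100, 1% formaldehyde, 1 ug/ml Hoechst) carried out 5 days after dosing, then counted on 4× images. The cells, lung cancer lines in 1536-well plates, had been dosed by pin tool the day after seeding with one drug alone or a fixed anchor-drug dose plus five library-drug doses (not always all listed) in √10 steps. Relative viability is the nuclei count in treated wells divided by that in vehicle wells, and each value is the median of duplicate plates.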

| Cell Line | relative viability (first compound 0.005 µM) | relative viability (first compound 0.01581 µM) | relative viability (first compound 0.05 µM) | relative viability (first compound 0.1581 µM) | relative viability (first compound 0.5 µM) |
| --- | --- | --- | --- | --- | --- |
| NCI-H1915 | 0.763 | 0.811 | 0.607 | 0.327 | 0.237 |
| NCI-H647 | 0.598 | 0.572 | 0.305 | 0.133 | 0.086 |
| IA-LM | 0.635 | 0.578 | 0.465 | 0.195 | 0.0832 |
| NCI-H2009 | 0.952 | 0.91 | 0.392 | 0.208 | 0.167 |
| NCI-H2126 | 1.03 | 1.08 | 0.993 | 0.526 | 0.351 |
| LXF-289 | 0.823 | 0.608 | 0.323 | 0.108 | 0.128 |
| NCI-H1563 | 0.835 | 0.817 | 0.833 | 0.858 | 0.604 |
| HCC-44 | 0.95 | 0.827 | 0.664 | 0.28 | 0.15 |
| PC-3 [JPC-3] | 0.796 | 0.828 | 0.775 | 0.539 | 0.39 |
| HOP-62 | 0.459 | 0.703 | 0.82 | 0.195 | 0.117 |
| NCI-H1666 | 0.694 | 0.597 | 0.505 | 0.317 | 0.267 |
| NCI-H1355 | 1.18 | 1.22 | 0.993 | 0.368 | 0.206 |
| HCC-827 | 1.01 | 1.06 | 0.848 | 0.402 | 0.401 |
| HARA | 1.06 | 1.11 | 0.651 | 0.191 | 0.108 |
| HCC-366 | 1.04 | 0.345 | 0.0201 | 0.0154 | 0.0255 |
| NCI-H322M | 1.15 | 1.11 | 1.25 | 0.471 | 0.46 |
| NCI-H2347 | 0.733 | 1.09 | 0.911 | 0.584 | 0.466 |

| Cell Line | relative viability (first compound 0.005 µM) | relative viability (first compound 0.01581 µM) | relative viability (first compound 0.05 µM) | relative viability (first compound 0.1581 µM) | relative viability (first compound 0.5 µM) |
| --- | --- | --- | --- | --- | --- |
| NCI-H1975 | 0.324 | 0.334 | 0.215 | 0.159 | 0.152 |
| NCI-H596 | – | 0.862 | 1.83 | 0.854 | 0.43 |
| ABC-1 | 0.279 | 0.269 | 0.315 | 0.278 | 0.278 |
| A-427 | 0.89 | 0.818 | 0.751 | 0.149 | 0.15 |
| LCLC-97TM1 | 0.51 | 0.725 | 0.108 | 0.0791 | 0.0549 |
| HCC-15 | 0.941 | 0.901 | 0.48 | 0.164 | 0.118 |
| NCI-H650 | 0.568 | 0.619 | 0.25 | 0.265 | 0.22 |
| UMC-11 | 0.34 | 0.184 | 0.0876 | 0.107 | 0.122 |
| NCI-H1651 | 0.87 | 0.928 | 0.526 | 0.339 | 0.194 |
| NCI-H1792 | 0.935 | 0.871 | 0.555 | 0.21 | 0.0867 |
| NCI-H2023 | 0.904 | 0.824 | 0.539 | 0.199 | 0.0763 |
| COR-L 105 | 0.757 | 0.875 | 0.447 | 0.27 | 0.218 |
| NCI-H1734 | 0.775 | 0.621 | 0.383 | 0.227 | 0.175 |
| NCI-H3122 | 0.987 | 1.04 | 0.865 | 0.47 | 0.308 |
| CAL-12T | 0.768 | 0.489 | 0.296 | 0.221 | 0.201 |
| HCC-78 | 0.522 | 0.272 | 0.24 | 0.19 | 0.175 |
| NCI-H2085 | 0.923 | 0.979 | 0.73 | 0.327 | 0.394 |
